{"source": "patent US20020183383A1", "about": "“Pharmaceutical compositions” (priority 2001, published 2002)", "key": {"[1]": {"system": "subjects with primary hypercholesterolemia", "experiment": "Safety and tolerability in the same 6-week clinical study (adverse events, laboratory analyses)", "type": "in vivo, human", "description": "(§1) Objectives: The primary objective of this study was to evaluate the dose-related cholesterol (LDL-C) lowering efficacy of pravastatin 40 mg, 80 mg and 160 mg after 6 weeks of once-daily oral administration in subjects with primary hypercholesterolemia. Secondary objectives were: 1) to evaluate the dose-related changes in serum total cholesterol (TC), high-density lipoprotein cholesterol (HDL-C), and triglycerides (TG) concentrations after 6 weeks of once-daily oral administration of pravastatin 40 mg, 80 mg and 160 mg in subjects with primary hypercholesterolemia; 2) to estimate the dose-related changes in serum LDL-C, TC, HDL-C, and TG concentrations after 2 weeks and 4 weeks of once-daily oral administration of pravastatin 40 mg, 80 mg and 160 mg in subjects with primary hypercholesterolemia; and 3) to ascertain the safety and tolerability of the treatment regimens after 6 weeks of once-daily oral administration of pravastatin 40 mg, 80 mg and 160 mg in subjects with primary hypercholesterolemia.\n(§2) Study Design and Methodology: This study was a multicenter, randomized, double-blind placebo-controlled, parallel design trial to determine the LDL-C lowering efficacy of pravastatin over a dose range of 40-160 mg in subjects with primary hypercholesterolemia. After at least 2 weeks of dietary stabilization and discontinuation of any previous lipid-lowering agents for a minimum of 4 weeks, subjects entered into a 4-week single-blind placebo lead-in period. At the end of the placebo lead-in period, subjects with mean serum LDL-C≧160 mg/dL and mean serum TG≦500 mg/dL were randomized (1:1:1:1) to one of four treatment groups: pravastatin 40 mg, pravastatin 80 mg, pravastatin 160 mg or placebo. Blinded treatment was administered once-daily at bedtime for 6 weeks.\nMedical history, physical examinations, laboratory analyses, and clinical adverse events (AEs)."}, "[2]": {"system": "subjects with primary hypercholesterolemia", "experiment": "Multicenter, double-blind, placebo-controlled, parallel study of lipid (LDL-C, TC, HDL-C, TG) lowering efficacy of once-daily pravastatin 40-160 mg", "type": "in vivo, human", "settings": "for HDL-C % Δ, adjusted percent change from baseline (ANCOVA) / LDL-C (calculated) % Δ, adjusted percent change from baseline (ANCOVA) / TC % Δ, adjusted percent change from baseline (ANCOVA) / TG % Δ, adjusted percent change from baseline (ANCOVA) / increase in HDL-C / mean reduction in TC / mean reduction in TG: Week 6; for mean reduction in LDL-C: 6 weeks of treatment", "description": "A Multicenter, Double-Blind, Placebo-Controlled, Parallel Study to Determine the LDL-C Lowering Efficacy of Pravastatin Administered Once Daily Over the Dosage Range of 40 mg Through 160 mg.\nas §1\nDuration of Treatment: 6 weeks\nas §2\nNumber of Subjects: 190 randomized; 189 received randomized study drug, 184 completed the study.\nDiagnosis and Main Criteria for Inclusion: Consenting men, or postmenopausal and surgically sterile women, aged 18 through 65 years were eligible to enroll in the study if they met the following criteria: 1) mean serum LDL-C≧160 mg/dL (the LDL-C concentration of the lower qualifying specimen were to be within 15% of the higher qualifying specimen) and 2) mean serum TG≦500 mg/dL obtained from two consecutive qualifying specimens.\nTest Product, dose, mode of administration: pravastatin, 40 mg tablets, oral\nPrimary Efficacy Outcome Measure:\nChange from baseline in calculated serum LDL-C at Week 6 of double-blind treatment.\nSecondary Efficacy Outcome Measures:\nChange from baseline in serum LDL-C at Weeks 2 and 4 of double blind treatment.\nChange from baseline in serum TC, HDL-C, and TG at Weeks 2,4, and 6 of double-blind treatment.\nAnalyses of covariance with terms for treatment and baseline.\nA contrast of the dose groups from the analysis of covariance model."}, "[3]": {"settings": "pravastatin 40 mg once daily, 6 weeks, N=46"}, "[4]": {"settings": "pravastatin 80 mg once daily, 6 weeks, N=49"}, "[5]": {"settings": "pravastatin 160 mg once daily, 6 weeks, N=48"}, "[6]": {"settings": "pravastatin 40 mg once daily, Week 6, N=45"}, "[7]": {"settings": "pravastatin 80 mg once daily, Week 6, N=48"}, "[8]": {"settings": "pravastatin 160 mg once daily, Week 6, N=48"}}, "data": [{"smiles": "CC[C@H](C)C(=O)O[C@H]1C[C@H](O)C=C2C=C[C@H](C)[C@H](CC[C@@H](O)C[C@@H](O)CC(=O)O)[C@H]21", "note": "[Pravastatin, Pravastatin sodium]", "values": [{"measurement": "subjects with CK elevation >4×ULN", "setting": "[1]; 40 mg pravastatin (one subject)", "result": 2.2, "unit": "%"}, {"measurement": "subjects discontinued due to gastrointestinal events considered possibly related to study drug", "setting": "[1]; 160 mg pravastatin treatment group (two subjects)", "result": 1.4, "unit": "%"}, {"measurement": "tolerability / safety in words", "setting": "[1]; 40, 80 and 160 mg once daily for 6 weeks", "result": "appears safe and well tolerated"}, {"measurement": "deaths or serious adverse events in the study", "setting": "[1]; all treatment groups, 6 weeks", "result": "no deaths or serious adverse events"}, {"measurement": "marked abnormalities (MAs) for ALT and AST", "setting": "[1]; all treatment groups, 6 weeks", "result": "No marked abnormalities"}, {"measurement": "Number of randomized subjects with ADE (adverse drug experience), n (%)", "setting": "[1]; [3]", "result": "5 (10.9%)"}, {"measurement": "Number of randomized subjects with AE (total), n (%)", "setting": "[1]; [3]", "result": "19 (43%)"}, {"measurement": "Number of randomized subjects with Discontinuations, n (%)", "setting": "[1]; [3]", "result": 0}, {"measurement": "Number of randomized subjects with SAE (serious adverse event)", "setting": "[1]; [3]", "result": 0}, {"measurement": "Number of randomized subjects with ADE (adverse drug experience), n (%)", "setting": "[1]; [4]", "result": "14 (28.6%)"}, {"measurement": "Number of randomized subjects with AE (total), n (%)", "setting": "[1]; [4]", "result": "24 (49.0%)"}, {"measurement": "Number of randomized subjects with Discontinuations, n (%)", "setting": "[1]; [4]", "result": 0}, {"measurement": "Number of randomized subjects with SAE (serious adverse event)", "setting": "[1]; [4]", "result": 0}, {"measurement": "frequency of adverse events by body system", "setting": "[1]; pravastatin 160 mg dose", "result": "higher frequency of adverse events in the gastrointestinal and respiratory body systems"}, {"measurement": "Number of randomized subjects with ADE (adverse drug experience), n (%)", "setting": "[1]; [5]", "result": "17 (35.4%)"}, {"measurement": "Number of randomized subjects with AE (total), n (%)", "setting": "[1]; [5]", "result": "29 (60.4%)"}, {"measurement": "Number of randomized subjects with Discontinuations, n (%)", "setting": "[1]; [5]", "result": "2 (1.4%)"}, {"measurement": "Number of randomized subjects with SAE (serious adverse event)", "setting": "[1]; [5]", "result": 0}, {"measurement": "absolute reduction in LDL cholesterol as the dose was doubled", "setting": "[2]; dose doubled from 40 mg to 80 mg, and again from 80 mg to 160 mg", "result": "greater than 6%"}, {"measurement": "additional LDL-C lowering with every doubling of the dose", "setting": "[2]; doses of 40-160 mg once daily, 6 weeks", "result": 8, "unit": "%"}, {"measurement": "LDL-C (calculated) Week 6 Mean", "setting": "[2]; pravastatin 40 mg once daily oral at bedtime, Week 6, N=45", "result": 139.0, "unit": "mg/dL"}, {"measurement": "HDL-C % Δ, adjusted percent change from baseline (ANCOVA)", "setting": "[2]; pravastatin 40 mg once daily", "result": 11.4, "unit": "%"}, {"measurement": "LDL-C (calculated) % Δ, adjusted percent change from baseline (ANCOVA)", "setting": "[2]; pravastatin 40 mg once daily", "result": "−28.6", "unit": "%"}, {"measurement": "TC % Δ, adjusted percent change from baseline (ANCOVA)", "setting": "[2]; pravastatin 40 mg once daily", "result": "−20.0", "unit": "%"}, {"measurement": "TG % Δ, adjusted percent change from baseline (ANCOVA)", "setting": "[2]; pravastatin 40 mg once daily", "result": "−15.8", "unit": "%"}, {"measurement": "HDL-C Week 6 Mean", "setting": "[2]; [6]", "result": 52.8, "unit": "mg/dL"}, {"measurement": "TC Week 6 Mean", "setting": "[2]; [6]", "result": 219.8, "unit": "mg/dL"}, {"measurement": "TG Week 6 Mean", "setting": "[2]; [6]", "result": 140.9, "unit": "mg/dL"}, {"measurement": "mean reduction in LDL-C", "setting": "[2]; pravastatin 40 mg", "result": 29, "unit": "%"}, {"measurement": "increase in HDL-C", "setting": "[2]; pravastatin 40 mg", "result": 11.4, "unit": "%"}, {"measurement": "mean reduction in TC", "setting": "[2]; pravastatin 40 mg", "result": 20, "unit": "%"}, {"measurement": "mean reduction in TG", "setting": "[2]; pravastatin 40 mg", "result": 16, "unit": "%"}, {"measurement": "LDL-C (calculated) Week 6 Mean", "setting": "[2]; pravastatin 80 mg once daily oral at bedtime, Week 6, N=48", "result": 124.7, "unit": "mg/dL"}, {"measurement": "HDL-C % Δ, adjusted percent change from baseline (ANCOVA)", "setting": "[2]; pravastatin 80 mg once daily", "result": 8.4, "unit": "%"}, {"measurement": "LDL-C (calculated) % Δ, adjusted percent change from baseline (ANCOVA)", "setting": "[2]; pravastatin 80 mg once daily", "result": "−36.7", "unit": "%"}, {"measurement": "TC % Δ, adjusted percent change from baseline (ANCOVA)", "setting": "[2]; pravastatin 80 mg once daily", "result": "−26.3", "unit": "%"}, {"measurement": "TG % Δ, adjusted percent change from baseline (ANCOVA)", "setting": "[2]; pravastatin 80 mg once daily", "result": "−14.2", "unit": "%"}, {"measurement": "HDL-C Week 6 Mean", "setting": "[2]; [7]", "result": 45.0, "unit": "mg/dL"}, {"measurement": "TC Week 6 Mean", "setting": "[2]; [7]", "result": 201.6, "unit": "mg/dL"}, {"measurement": "TG Week 6 Mean", "setting": "[2]; [7]", "result": 158.8, "unit": "mg/dL"}, {"measurement": "mean reduction in LDL-C", "setting": "[2]; pravastatin 80 mg", "result": 37, "unit": "%"}, {"measurement": "increase in HDL-C", "setting": "[2]; pravastatin 80 mg", "result": 8.4, "unit": "%"}, {"measurement": "mean reduction in TC", "setting": "[2]; pravastatin 80 mg", "result": 26, "unit": "%"}, {"measurement": "mean reduction in TG", "setting": "[2]; pravastatin 80 mg", "result": 14, "unit": "%"}, {"measurement": "LDL-C (calculated) Week 6 Mean", "setting": "[2]; pravastatin 160 mg once daily oral at bedtime, Week 6, N=47", "result": 108.4, "unit": "mg/dL"}, {"measurement": "HDL-C % Δ, adjusted percent change from baseline (ANCOVA)", "setting": "[2]; pravastatin 160 mg once daily", "result": 9.6, "unit": "%"}, {"measurement": "LDL-C (calculated) % Δ, adjusted percent change from baseline (ANCOVA)", "setting": "[2]; pravastatin 160 mg once daily", "result": "−45.2", "unit": "%"}, {"measurement": "TC % Δ, adjusted percent change from baseline (ANCOVA)", "setting": "[2]; pravastatin 160 mg once daily", "result": "−34.2", "unit": "%"}, {"measurement": "TG % Δ, adjusted percent change from baseline (ANCOVA)", "setting": "[2]; pravastatin 160 mg once daily", "result": "−26.9", "unit": "%"}, {"measurement": "HDL-C Week 6 Mean", "setting": "[2]; [8]", "result": 46.4, "unit": "mg/dL"}, {"measurement": "TC Week 6 Mean", "setting": "[2]; [8]", "result": 181.3, "unit": "mg/dL"}, {"measurement": "TG Week 6 Mean", "setting": "[2]; [8]", "result": 132.0, "unit": "mg/dL"}, {"measurement": "mean reduction in LDL-C", "setting": "[2]; pravastatin 160 mg", "result": 45, "unit": "%"}, {"measurement": "increase in HDL-C", "setting": "[2]; pravastatin 160 mg", "result": 9.6, "unit": "%"}, {"measurement": "mean reduction in TC", "setting": "[2]; pravastatin 160 mg", "result": 34, "unit": "%"}, {"measurement": "mean reduction in TG", "setting": "[2]; pravastatin 160 mg", "result": 27, "unit": "%"}]}]}
